Data published in paper PMC5471521, “Novel selective β1-adrenoceptor antagonists for concomitant cardiovascular and respiratory disease” (The FASEB Journal, 2017).
Where two headings read alike, the source gives them in different places.

Tests used:
[1] = PK analysis in male Sprague-Dawley rats; type: in vivo; conditions: rat; for AUC(0-t) / half-life / clearance / Vd / Cmax / Tmax / bioavailability: male, Sprague-Dawley; for AUC(0-t) / half-life / clearance / Vd / Cmax / Tmax / AUC0-t/dose: hydrochloride salt forms; for half-life: read-out: t1/2, app (converted); for Vd: read-out: Vss; for Unbound plasma level at Cmax below β2-AR Kd / Likely duration of β1-AR blockade: 20 mg/kg p.o.; for Likely duration of β1-AR blockade: judged from PK profile vs Kd
Protocol: Blood samples were centrifuged, supernatant plasma was removed, and plasma concentrations of compounds were determined by LC-MS. […] Studies were carried out by CDCO.

human β1-AR = molecular target: T1, human β1-AR (Homo sapiens, UniProt P08588); assay: 3H-CGP12177 whole-cell binding in CHO-β1 cells; conditions: for Kd: CHO-β1 cells, mean ± SEM, read-out: Human β1-AR Log Kd (converted); for SI1a (in vitro binding) = Kd,β2/Kd,β1: Kd values from 3H-CGP12177 whole-cell binding, Table 1
T1 construct: expressed in transfected cells
T1 sequence (P08588 whole entry): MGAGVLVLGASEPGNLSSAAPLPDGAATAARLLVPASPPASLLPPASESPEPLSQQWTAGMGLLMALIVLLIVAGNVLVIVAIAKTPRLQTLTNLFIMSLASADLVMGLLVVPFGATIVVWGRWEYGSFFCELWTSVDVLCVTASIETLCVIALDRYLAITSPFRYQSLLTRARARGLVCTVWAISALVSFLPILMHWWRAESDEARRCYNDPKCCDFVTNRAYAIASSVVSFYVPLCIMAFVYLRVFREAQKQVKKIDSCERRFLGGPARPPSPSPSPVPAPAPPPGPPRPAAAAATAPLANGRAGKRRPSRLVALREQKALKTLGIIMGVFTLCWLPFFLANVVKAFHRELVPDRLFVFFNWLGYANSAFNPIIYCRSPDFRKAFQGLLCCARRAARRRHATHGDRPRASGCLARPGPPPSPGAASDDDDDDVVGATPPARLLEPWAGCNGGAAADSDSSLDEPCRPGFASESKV

[2] = Protein binding by ultracentrifugation, human liver microsomes; type: in vitro ADME; conditions: pH 7.4, 0.4 mg/ml protein, read-out: fu human liver microsomes
Protocol: Protein binding of 1 µM NDD-713.HCl and -825.HCl in human and rat plasma, as well as human liver microsomes, was assessed by using the ultracentrifugation technique. Frozen human plasma (Australian Red Cross Blood Service, Melbourne, VIC, Australia) and rat plasma (male Sprague-Dawley rats; Charles River, Margate, Kent, United Kingdom) were thawed at 37°C. Human liver microsomes (XenoTech) were suspended in 0.1 M phosphate buffer (pH 7.4) at protein concentrations of 0.4 mg/ml. Samples were collected immediately as stability reference controls. Spiked plasma samples (but not microsome samples) were incubated at 37°C for 1 h. […] NDD-713.HCl and -825.HCl concentrations of noncentrifuged matrix and protein-free supernatant were determined by UPLC-MS relative to calibration standards prepared in the respective matrices. Total concentration (Ctotal) was the average measured concentration in […] samples maintained at 37°C, and unbound concentration (Cunbound) was the average measured concentration in protein-free supernatants from centrifuged samples (n = 3). The compound unbound fraction (fu) was calculated: fu = Cunbound/Ctotal. Compound degradation was assessed by comparing concentrations in noncentrifuged plasma samples that were incubated at 37°C with concentrations measured in the t = 0 noncentrifuged samples. […]

human β3-AR = molecular target: T2, human β3-AR (Homo sapiens, UniProt P13945); assay: Radioligand binding at human β3-AR
T2 construct: expressed in transfected cells
T2 sequence (P13945 whole entry): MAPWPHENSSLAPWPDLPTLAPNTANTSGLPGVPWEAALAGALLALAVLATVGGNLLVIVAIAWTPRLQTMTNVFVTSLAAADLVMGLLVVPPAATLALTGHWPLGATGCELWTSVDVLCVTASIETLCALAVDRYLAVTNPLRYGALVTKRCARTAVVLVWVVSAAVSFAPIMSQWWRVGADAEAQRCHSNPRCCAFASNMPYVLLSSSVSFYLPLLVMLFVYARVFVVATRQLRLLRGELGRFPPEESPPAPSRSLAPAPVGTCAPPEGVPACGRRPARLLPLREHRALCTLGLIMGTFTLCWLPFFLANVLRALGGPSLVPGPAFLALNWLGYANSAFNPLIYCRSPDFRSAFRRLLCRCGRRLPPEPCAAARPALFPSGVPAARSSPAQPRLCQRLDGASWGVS
Protocol: Chinese hamster ovary (CHO) cells that stably express human β1-ARs (CHO-β1: 1146 fmol/mg protein), human β2-ARs (CHO-β2: 466 fmol/mg protein), or human β3-ARs (CHO-β3: 790 fmol/mg protein) were grown as previously described ([11]). Human bronchial smooth muscle cells were obtained from Lonza (Basel, Switzerland) and grown in manufacturer media. Rat β-AR binding experiments (DNA from cDNA Resource Centre, Bloomsburg, PA, USA) were conducted by using transiently transfected CHO cells ([44]).
Confluent cells were examined (96-well plates, 2 h incubation at 37°C) as previously described ([11]) with ^3H-CGP12177 at 0.43–3.03 nM. Propranolol (10 μM) defined nonspecific binding. Kd values were derived from IC50 values by using the Cheng-Prusoff equation as previously described ([11]).

CYP1A2 = molecular target: T3, CYP1A2 (Homo sapiens, UniProt P05177); assay: P450 inhibition in human liver microsomes; type: in vitro ADME; conditions: 0.25–20 μM, hydrochloride salts used
T3 construct: in human liver microsomes (batch 34689 for CYP1A2 and CYP3A4; batch 0910251 for CYP2C9, CYP2C19, and CYP2D6); tissue batch 34689; host or cells: human liver microsomes
T3 sequence (P05177 whole entry): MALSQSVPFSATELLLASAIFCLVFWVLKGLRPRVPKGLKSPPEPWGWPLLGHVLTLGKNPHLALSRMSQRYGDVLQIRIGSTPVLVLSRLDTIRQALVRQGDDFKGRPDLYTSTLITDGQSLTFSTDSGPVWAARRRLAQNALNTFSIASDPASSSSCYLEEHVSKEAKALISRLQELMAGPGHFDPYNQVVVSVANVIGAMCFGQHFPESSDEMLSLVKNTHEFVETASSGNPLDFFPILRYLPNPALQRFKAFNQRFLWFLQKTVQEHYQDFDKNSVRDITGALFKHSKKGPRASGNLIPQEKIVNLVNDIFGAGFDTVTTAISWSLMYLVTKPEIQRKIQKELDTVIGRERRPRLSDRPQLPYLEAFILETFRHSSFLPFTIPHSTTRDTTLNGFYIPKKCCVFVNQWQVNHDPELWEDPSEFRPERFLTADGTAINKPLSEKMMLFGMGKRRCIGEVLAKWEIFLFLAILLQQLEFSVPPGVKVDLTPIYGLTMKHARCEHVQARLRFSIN
Protocol: (§1) Concentrations of NDD-713.HCl and -825.HCl (0.25–20 μM) were incubated in triplicate (37°C for 4–40 min) with substrates specific for individual P450 isoforms (see Supplemental Data for full details) in human liver microsomes (batch 34689 for CYP1A2 and CYP3A4; batch 0910251 for CYP2C9, CYP2C19, and CYP2D6) at protein concentrations of 0.4 mg/ml (CYP1A2, CYP2C9, CYP2D6 and CYP3A4/5) or 1.0 mg/ml (CYP2C19) and a total organic solvent concentration <1%. Reaction was initiated by addition of NADPH-regenerating system and samples were quenched by addition of ice-cold acetonitrile, which contained 0.15 μg/ml diazepam as an internal standard, before determination of the concentration of specific metabolites by LC-MS. Compound IC50 values (and positive control) for each P450 isoform was assessed according to %reduction in formation of the specific metabolite (maximal metabolite formation occurring in the absence of inhibitor). […] Control samples were included to confirm that the LC-MS assay was not affected by test compounds (and potential metabolites). Studies were carried out by CDCO.

CYP2C9 = molecular target: T4, CYP2C9 (Homo sapiens, UniProt P11712); assay: P450 inhibition in human liver microsomes; type: in vitro ADME; conditions: 0.25–20 μM, hydrochloride salts used
T4 construct: in human liver microsomes; tissue batch 0910251; host or cells: human liver microsomes
T4 sequence (P11712 whole entry): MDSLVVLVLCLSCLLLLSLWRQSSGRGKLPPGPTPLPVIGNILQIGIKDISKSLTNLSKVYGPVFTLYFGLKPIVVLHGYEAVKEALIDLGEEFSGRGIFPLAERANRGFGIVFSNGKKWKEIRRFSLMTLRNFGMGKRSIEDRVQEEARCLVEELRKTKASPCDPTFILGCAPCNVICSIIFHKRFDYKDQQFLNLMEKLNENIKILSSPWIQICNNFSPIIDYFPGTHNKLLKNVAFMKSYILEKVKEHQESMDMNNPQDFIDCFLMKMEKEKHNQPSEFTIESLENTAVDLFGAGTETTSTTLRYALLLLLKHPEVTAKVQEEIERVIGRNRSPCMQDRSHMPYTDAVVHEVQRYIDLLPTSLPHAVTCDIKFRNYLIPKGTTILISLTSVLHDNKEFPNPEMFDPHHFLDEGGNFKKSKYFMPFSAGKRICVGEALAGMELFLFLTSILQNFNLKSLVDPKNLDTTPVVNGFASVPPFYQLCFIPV
Protocol: as §1

CYP2C19 = molecular target: T5, CYP2C19 (Homo sapiens, UniProt P33261); assay: P450 inhibition in human liver microsomes; type: in vitro ADME; conditions: 0.25–20 μM, hydrochloride salts used
T5 construct: in human liver microsomes; tissue batch 0910251; host or cells: human liver microsomes
T5 sequence (P33261 whole entry): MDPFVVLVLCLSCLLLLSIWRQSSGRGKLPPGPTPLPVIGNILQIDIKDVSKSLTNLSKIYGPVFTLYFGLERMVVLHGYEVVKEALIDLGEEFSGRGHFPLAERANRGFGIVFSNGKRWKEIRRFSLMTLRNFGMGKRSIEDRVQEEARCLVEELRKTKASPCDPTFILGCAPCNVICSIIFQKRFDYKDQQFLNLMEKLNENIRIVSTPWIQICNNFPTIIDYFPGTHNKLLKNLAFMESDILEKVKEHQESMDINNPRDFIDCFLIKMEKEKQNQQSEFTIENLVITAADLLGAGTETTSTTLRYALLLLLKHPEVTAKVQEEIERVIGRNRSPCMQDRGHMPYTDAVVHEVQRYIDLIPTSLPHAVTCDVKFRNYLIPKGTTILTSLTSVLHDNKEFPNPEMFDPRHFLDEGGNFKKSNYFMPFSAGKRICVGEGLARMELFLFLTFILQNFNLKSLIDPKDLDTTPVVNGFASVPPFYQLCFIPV
Protocol: as §1

CYP3A4/5 = assay: P450 inhibition in human liver microsomes; type: in vitro ADME; conditions: 0.25–20 μM, hydrochloride salts used
Protocol: as §1

[3] = plasma, iv, i.v. 2 mg/kg, mean ± SD n = 3
[4] = plasma, iv, i.v. 2 mg/kg, read-out: Plasma CLtotal
[5] = plasma, iv, i.v. 6 mg/kg, mean ± SD n = 3
[6] = plasma, iv, i.v. 6 mg/kg, read-out: Plasma CLtotal
[7] = plasma, iv, i.v. 20 mg/kg, mean ± SD n = 3
[8] = plasma, iv, i.v. 20 mg/kg, read-out: Plasma CLtotal
[9] = whole blood, iv, i.v. 2 mg/kg, read-out: Blood CLtotal
[10] = whole blood, iv, i.v. 6 mg/kg, read-out: Blood CLtotal
[11] = whole blood, iv, i.v. 20 mg/kg, read-out: Blood CLtotal

NC(=O)c1ccc(OCCNC[C@H](O)COc2ccc3c(c2)OC[C@@H](COCC2CC2)O3)cc1 [NDD-713]
AUC(0-t) ([1]; plasma, iv, i.v. 2 mg/kg): 1.2 ± 0.1 µM·h | half-life [1, 3]: 1.7 ± 0.2 h | clearance [1, 4]: 62 ± 4 mL/min/kg | Vd ([1]; plasma, iv, i.v. 2 mg/kg): 4.3 ± 0.4 L/kg | AUC(0-t) ([1]; plasma, iv, i.v. 6 mg/kg): 4.6 ± 0.3 µM·h | half-life [1, 5]: 1.6 ± 0.1 h | clearance [1, 6]: 43 ± 1 mL/min/kg | Vd ([1]; plasma, iv, i.v. 6 mg/kg): 3.6 ± 0.2 L/kg | AUC(0-t) ([1]; plasma, iv, i.v. 20 mg/kg): 14.7 ± 1 µM·h | half-life [1, 7]: 2 h | clearance [1, 8]: 51 ± 2 mL/min/kg | Vd ([1]; plasma, iv, i.v. 20 mg/kg): 4.2 ± 0.2 L/kg | AUC(0-t) ([1]; plasma, po, p.o. 2 mg/kg): 0.6 ± 0.2 µM·h | Cmax ([1]; plasma, po, p.o. 2 mg/kg): 200 ± 100 nM | Tmax ([1]; plasma, po, p.o. 2 mg/kg): 0.5 h | AUC(0-t) ([1]; plasma, po, p.o. 10 mg/kg): 5.1 ± 0.2 µM·h | Cmax ([1]; plasma, po, p.o. 10 mg/kg): 2100 ± 600 nM | Tmax ([1]; plasma, po, p.o. 10 mg/kg): 0.75 h | half-life ([1]; plasma, po, p.o. 10 mg/kg): 1.5 h | AUC(0-t) ([1]; plasma, po, p.o. 20 mg/kg): 6.3 ± 0.3 µM·h | Cmax ([1]; plasma, po, p.o. 20 mg/kg): 2000 ± 100 nM | Tmax ([1]; plasma, po, p.o. 20 mg/kg): 0.75 h | half-life ([1]; plasma, po, p.o. 20 mg/kg): 2.1 h | bioavailability ([1]; plasma, po, 2 mg/kg): 50 ± 11% | bioavailability ([1]; plasma, po, 10 mg/kg): 77 ± 3% | bioavailability ([1]; plasma, po, 20 mg/kg): 44 ± 1% | clearance [1, 9]: 51 ± 3 mL/min/kg | clearance [1, 10]: 36 ± 1 mL/min/kg | clearance [1, 11]: 42 ± 1 mL/min/kg | Unbound plasma level at Cmax below β2-AR Kd [1]: at least 5 fold | Likely duration of β1-AR blockade [1]: 10 h | AUC0-t/dose ([1]; i.v. 2 mg/kg): 0.6 ± 0.1 μM ⋅ h/(mg/kg) | AUC0-t/dose ([1]; i.v. 6 mg/kg): 0.8 ± 0 μM ⋅ h/(mg/kg) | AUC0-t/dose ([1]; i.v. 20 mg/kg): 0.7 ± 0 μM ⋅ h/(mg/kg) | AUC0-t/dose ([1]; p.o. 2 mg/kg): 0.4 ± 0.1 μM ⋅ h/(mg/kg) | AUC0-t/dose ([1]; p.o. 10 mg/kg): 0.5 ± 0.1 μM ⋅ h/(mg/kg) | AUC0-t/dose ([1]; p.o. 20 mg/kg): 0.3 ± 0 μM ⋅ h/(mg/kg) | Kd (human β1-AR): 0.0151 µM | SI1a (in vitro binding) = Kd,β2/Kd,β1 (human β1-AR): 589 | Human β1 vs. β2 selectivity Kd,β2/Kd,β1 (human β1-AR; from 3H-CGP12177 whole-cell binding): 589 | fraction unbound at 4.2 h, 1 µM [2]: 0.67 | Affinity at human β3-AR (human β3-AR): so low that accurate measurements were not possible | IC50 (CYP1A2): > 20 µM | IC50 (CYP2C9): > 20 µM | IC50 (CYP2C19): > 20 µM | IC50 (CYP3A4/5): > 20 µM

O=C1NCc2cc(OCCNC[C@H](O)COc3ccc4c(c3)OC[C@@H](COCC3CC3)O4)ccc21 [NDD-825]
AUC(0-t) ([1]; plasma, iv, i.v. 2 mg/kg): 1.4 µM·h | half-life [1, 3]: 5.3 ± 0.3 h | clearance [1, 4]: 54 ± 2 mL/min/kg | Vd ([1]; plasma, iv, i.v. 2 mg/kg): 6 ± 0.5 L/kg | AUC(0-t) ([1]; plasma, iv, i.v. 6 mg/kg): 3.8 ± 0.2 µM·h | half-life [1, 5]: 7.3 ± 0.1 h | clearance [1, 6]: 59 ± 1 mL/min/kg | Vd ([1]; plasma, iv, i.v. 6 mg/kg): 5 L/kg | AUC(0-t) ([1]; plasma, iv, i.v. 20 mg/kg): 12.1 ± 0.3 µM·h | half-life [1, 7]: 7.1 ± 1.3 h | clearance [1, 8]: 55 ± 1 mL/min/kg | Vd ([1]; plasma, iv, i.v. 20 mg/kg): 4.7 L/kg | AUC(0-t) ([1]; plasma, po, p.o. 2 mg/kg): 0.4 ± 0.1 µM·h | Cmax ([1]; plasma, po, p.o. 2 mg/kg): 100 nM | Tmax ([1]; plasma, po, p.o. 2 mg/kg): 1.38 h | half-life ([1]; plasma, po, p.o. 2 mg/kg): 9.8 ± 0.2 h | AUC(0-t) ([1]; plasma, po, p.o. 10 mg/kg): 3 ± 0.4 µM·h | Cmax ([1]; plasma, po, p.o. 10 mg/kg): 800 ± 100 nM | Tmax ([1]; plasma, po, p.o. 10 mg/kg): 0.75 h | half-life ([1]; plasma, po, p.o. 10 mg/kg): 4.6 ± 0.1 h | AUC(0-t) ([1]; plasma, po, p.o. 20 mg/kg): 11.9 ± 3 µM·h | Cmax ([1]; plasma, po, p.o. 20 mg/kg): 1400 ± 300 nM | Tmax ([1]; plasma, po, p.o. 20 mg/kg): 3.1 h | half-life ([1]; plasma, po, p.o. 20 mg/kg): 3.3 ± 0.2 h | bioavailability ([1]; plasma, po, 2 mg/kg): 32 ± 5% | bioavailability ([1]; plasma, po, 10 mg/kg): 45 ± 6% | bioavailability ([1]; plasma, po, 20 mg/kg): 89 ± 24% | clearance [1, 9]: 39 ± 1 mL/min/kg | clearance [1, 10]: 42 ± 1 mL/min/kg | clearance [1, 11]: 39 ± 1 mL/min/kg | Unbound plasma level at Cmax below β2-AR Kd [1]: at least 5 fold | Likely duration of β1-AR blockade [1]: > 24 h | AUC0-t/dose ([1]; i.v. 2 mg/kg): 0.6 ± 0 μM ⋅ h/(mg/kg) | AUC0-t/dose ([1]; i.v. 6 mg/kg): 0.6 ± 0 μM ⋅ h/(mg/kg) | AUC0-t/dose ([1]; i.v. 20 mg/kg): 0.6 ± 0 μM ⋅ h/(mg/kg) | AUC0-t/dose ([1]; p.o. 2 mg/kg): 0.2 ± 0 μM ⋅ h/(mg/kg) | AUC0-t/dose ([1]; p.o. 10 mg/kg): 0.3 ± 0.1 μM ⋅ h/(mg/kg) | AUC0-t/dose ([1]; p.o. 20 mg/kg): 0.5 ± 0.2 μM ⋅ h/(mg/kg) | Kd (human β1-AR): 0.00525 µM | SI1a (in vitro binding) = Kd,β2/Kd,β1 (human β1-AR): 1023 | fraction unbound at 4.2 h, 1 µM [2]: 0.63 | Affinity at human β3-AR (human β3-AR): so low that accurate measurements were not possible | IC50 (CYP1A2): > 20 µM | IC50 (CYP2C9): > 20 µM | IC50 (CYP2C19): > 20 µM | IC50 (CYP3A4/5): > 20 µM
